Results taken from US11739098B2 (BRISTOL-MYERS SQUIBB COMPANY, priority 2017, dated 2023).

Key:
Format in all cases: cell-based
human TLR8 = molecular target: T1, human TLR8 (Homo sapiens, UniProt Q9NR97); test: TLR8 inhibition reporter assay (HEK-Blue cells, SEAP reporter, R848 stimulation); conditions: HEK-Blue cells overexpressing human TLR8, SEAP reporter, R848 15.9 μM
T1 construct: host or cells: HEK-Blue cells (HEK293-derived reporter line)
T1 sequence (Q9NR97 27-1041): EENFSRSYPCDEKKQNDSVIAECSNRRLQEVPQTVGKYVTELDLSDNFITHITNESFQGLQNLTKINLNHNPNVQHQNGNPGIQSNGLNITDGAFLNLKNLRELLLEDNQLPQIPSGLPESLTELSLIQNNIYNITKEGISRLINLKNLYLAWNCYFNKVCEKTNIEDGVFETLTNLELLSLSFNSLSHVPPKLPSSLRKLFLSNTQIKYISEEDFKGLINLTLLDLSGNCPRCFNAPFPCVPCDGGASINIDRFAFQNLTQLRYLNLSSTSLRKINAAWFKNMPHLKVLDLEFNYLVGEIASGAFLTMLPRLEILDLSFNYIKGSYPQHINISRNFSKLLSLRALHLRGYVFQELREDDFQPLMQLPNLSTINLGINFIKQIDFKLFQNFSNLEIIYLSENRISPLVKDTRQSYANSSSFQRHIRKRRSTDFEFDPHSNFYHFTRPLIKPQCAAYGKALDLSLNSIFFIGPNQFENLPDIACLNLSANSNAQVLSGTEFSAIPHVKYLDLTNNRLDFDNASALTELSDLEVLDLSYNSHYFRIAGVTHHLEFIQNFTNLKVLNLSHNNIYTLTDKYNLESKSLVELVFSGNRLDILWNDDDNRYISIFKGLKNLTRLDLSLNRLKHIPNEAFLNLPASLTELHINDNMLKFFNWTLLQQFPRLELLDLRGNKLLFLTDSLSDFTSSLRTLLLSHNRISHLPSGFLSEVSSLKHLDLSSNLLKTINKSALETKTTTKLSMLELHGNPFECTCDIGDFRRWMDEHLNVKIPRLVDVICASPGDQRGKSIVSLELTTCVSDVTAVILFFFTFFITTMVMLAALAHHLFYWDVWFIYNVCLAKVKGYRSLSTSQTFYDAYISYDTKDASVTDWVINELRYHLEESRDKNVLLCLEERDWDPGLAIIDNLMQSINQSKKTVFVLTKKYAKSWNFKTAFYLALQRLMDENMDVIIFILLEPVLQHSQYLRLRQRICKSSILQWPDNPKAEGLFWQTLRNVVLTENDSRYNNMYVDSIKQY
How it was run: (§1)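 Read-out is SEAP activity in HEK-Blue detection medium after 22 h at 37 °C, converted to percent inhibition against agonist-plus-DMSO and reference-inhibitor controls. Cells saw compound (0.05 nM–50 μM, 30 min, room temperature) before gardiquimod 7.5 μM, R848 15.9 μM or ODN2006 5 nM for TLR7, TLR8 and TLR9, respectively.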

human TLR7 = molecular target: T2, human TLR7 (Homo sapiens, UniProt Q9NYK1); test: TLR7 inhibition reporter assay (HEK-Blue cells, SEAP reporter, gardiquimod stimulation); conditions: HEK-Blue cells overexpressing human TLR7, SEAP reporter, gardiquimod 7.5 μM
T2 construct: host or cells: HEK-Blue cells (HEK293-derived reporter line)
T2 sequence (Q9NYK1 27-1049): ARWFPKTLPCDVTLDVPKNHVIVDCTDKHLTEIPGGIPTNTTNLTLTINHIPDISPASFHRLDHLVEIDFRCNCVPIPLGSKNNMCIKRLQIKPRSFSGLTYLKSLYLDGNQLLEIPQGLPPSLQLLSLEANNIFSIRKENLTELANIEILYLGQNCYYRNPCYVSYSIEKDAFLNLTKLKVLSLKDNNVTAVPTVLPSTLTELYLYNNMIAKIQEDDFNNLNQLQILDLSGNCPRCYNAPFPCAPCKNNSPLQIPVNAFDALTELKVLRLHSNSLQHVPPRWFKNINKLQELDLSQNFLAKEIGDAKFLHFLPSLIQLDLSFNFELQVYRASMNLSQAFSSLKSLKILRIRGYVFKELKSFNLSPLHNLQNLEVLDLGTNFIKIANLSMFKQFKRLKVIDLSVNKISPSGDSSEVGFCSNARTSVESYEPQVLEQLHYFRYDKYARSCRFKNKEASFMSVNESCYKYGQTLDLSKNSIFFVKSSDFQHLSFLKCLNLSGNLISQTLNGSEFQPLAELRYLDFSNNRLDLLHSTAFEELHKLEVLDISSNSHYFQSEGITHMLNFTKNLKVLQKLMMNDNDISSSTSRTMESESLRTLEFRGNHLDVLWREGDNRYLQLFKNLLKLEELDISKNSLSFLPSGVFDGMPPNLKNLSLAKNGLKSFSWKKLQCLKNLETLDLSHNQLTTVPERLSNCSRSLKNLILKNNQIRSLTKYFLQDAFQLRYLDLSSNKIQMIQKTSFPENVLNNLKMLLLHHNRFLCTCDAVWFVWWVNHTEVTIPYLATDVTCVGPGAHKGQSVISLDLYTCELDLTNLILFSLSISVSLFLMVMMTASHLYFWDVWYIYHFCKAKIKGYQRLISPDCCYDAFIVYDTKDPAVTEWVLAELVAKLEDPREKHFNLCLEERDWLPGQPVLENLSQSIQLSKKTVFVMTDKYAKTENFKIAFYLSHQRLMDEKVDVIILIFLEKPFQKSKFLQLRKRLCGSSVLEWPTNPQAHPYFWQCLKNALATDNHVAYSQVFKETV
How it was run: as §1

human TLR9 = molecular target: T3, human TLR9 (Homo sapiens, UniProt Q9NR96); test: TLR9 inhibition reporter assay (HEK-Blue cells, SEAP reporter, ODN2006 stimulation); conditions: HEK-Blue cells overexpressing human TLR9, SEAP reporter, ODN2006 5 nM
T3 construct: host or cells: HEK-Blue cells (HEK293-derived reporter line)
T3 sequence (Q9NR96 26-1032): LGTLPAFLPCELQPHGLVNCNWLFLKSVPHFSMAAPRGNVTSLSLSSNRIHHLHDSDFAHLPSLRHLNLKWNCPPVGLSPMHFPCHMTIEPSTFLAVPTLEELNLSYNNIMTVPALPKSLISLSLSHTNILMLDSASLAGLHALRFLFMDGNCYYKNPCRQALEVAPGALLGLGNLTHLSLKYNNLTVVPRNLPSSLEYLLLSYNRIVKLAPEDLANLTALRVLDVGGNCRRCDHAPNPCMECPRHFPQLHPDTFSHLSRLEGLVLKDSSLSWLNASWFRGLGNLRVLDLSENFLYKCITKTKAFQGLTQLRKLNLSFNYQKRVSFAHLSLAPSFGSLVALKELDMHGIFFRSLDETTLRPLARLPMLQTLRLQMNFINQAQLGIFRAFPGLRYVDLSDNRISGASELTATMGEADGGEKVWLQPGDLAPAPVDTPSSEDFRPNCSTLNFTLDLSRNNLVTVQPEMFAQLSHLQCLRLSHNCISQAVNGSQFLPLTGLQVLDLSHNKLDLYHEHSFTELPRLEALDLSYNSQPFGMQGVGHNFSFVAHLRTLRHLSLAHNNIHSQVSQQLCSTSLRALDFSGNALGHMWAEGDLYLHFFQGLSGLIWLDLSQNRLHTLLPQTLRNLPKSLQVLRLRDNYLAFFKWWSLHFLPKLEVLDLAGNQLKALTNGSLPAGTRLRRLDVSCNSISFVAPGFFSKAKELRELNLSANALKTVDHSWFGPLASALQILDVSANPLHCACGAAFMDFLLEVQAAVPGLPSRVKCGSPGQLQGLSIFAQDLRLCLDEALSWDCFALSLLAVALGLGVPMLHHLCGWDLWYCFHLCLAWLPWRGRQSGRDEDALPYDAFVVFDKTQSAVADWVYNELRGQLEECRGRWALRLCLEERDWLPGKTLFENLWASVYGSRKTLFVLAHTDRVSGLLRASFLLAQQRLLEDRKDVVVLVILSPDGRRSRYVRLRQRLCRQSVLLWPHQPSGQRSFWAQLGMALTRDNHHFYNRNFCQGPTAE
How it was run: as §1

| Compound | IC50 (human TLR8) [nM] | IC50 (human TLR7) [nM] | IC50 (human TLR9) [nM] |
| --- | --- | --- | --- |
| Cc1cc2cc(-c3[nH]c4ccc(C5CCN(CC(C)(C)O)CC5)cc4c3C(C)C)cc(CC(C)C)n2n1 [Example 770, 1-(4-(2-(7-isobutyl-2-methylpyrazolo[1,5-a]pyridin-5-yl)-3-isopropyl-1H-indol-5-yl)piperidin-1-yl)-2-methylpropan-2-ol] | > 3130 | > 3130 | 1000 to 50000 |
| Cc1c(-c2[nH]c3ccc(C4CCN(C5CCOCC5)CC4)cc3c2C(C)C)c2cccnc2n1C [Example 691, 3-(3-isopropyl-5-(1-(tetrahydro-2H-pyran-4-yl)piperidin-4-yl)-1H-indol-2-yl)-1,2-dimethyl-1H-pyrrolo[2,3-b]pyridine] | < 100 | < 100 | 1000 to 50000 |
| Cc1cc2cc(-c3[nH]c4ccc(C5CCN(CC(=O)N(C)C)CC5)cc4c3C(C)C)ccn2n1 [Example 323, 2-(4-(3-isopropyl-2-(2-methylpyrazolo[1,5-a]pyridin-5-yl)-1H-indol-5-yl)piperidin-1-yl)-N,N-dimethylacetamide] | 1000 to 50000 | 100 to 1000 | 1000 to 50000 |
| CC(C)c1c(-c2ccnc3[nH]ncc23)[nH]c2ccc(C3CCN(Cc4ccc(OCCN(C)c5ccccn5)cc4)CC3)cc12 [Example 894, N-(2-(4-((4-(3-isopropyl-2-(1H-pyrazolo[3,4-b]pyridin-4-yl)-1H-indol-5-yl)piperidin-1-yl)methyl)phenoxy)ethyl)-N-methylpyridin-2-amine] | < 100 | 100 to 1000 | 100 to 1000 |
| FC(F)Cc1c(-c2ccnc3[nH]ccc23)[nH]c2ccc(C3CCNCC3)cc12 [Example 205, 4-(3-(2,2-difluoroethyl)-5-(piperidin-4-yl)-1H-indol-2-yl)-1H-pyrrolo [2,3-b]pyridine] | < 100 | < 100 | 100 to 1000 |
| CNC(=O)CN1CCC(c2ccc3[nH]c(-c4ccc(C)n5ncnc45)c(C(C)C)c3c2)CC1 [Example 386, 2-(4-(3-isopropyl-2-(5-methyl-[1,2,4]triazolo[1,5-a]pyridin-8-yl)-1H-indol-5-yl)piperidin-1-yl)-N-methylacetamide] | 100 to 1000 | < 100 | 1000 to 50000 |
| Cc1cc(-c2[nH]c3ccc(C4CCNCC4)cc3c2C(C)C)cc2cnnn12 [Example 78, 5-(3-isopropyl-5-(piperidin-4-yl)-1H-indol-2-yl)-7-methyl-[1,2,3]triazolo[1,5-a]pyridine] | < 100 | < 100 | 1000 to 50000 |
| Cc1cc2nccn2cc1-c1[nH]c2ccc(C3CCNCC3)cc2c1C(C)C [Example 110, 6-(3-isopropyl-5-(piperidin-4-yl)-1H-indol-2-yl)-7-methylimidazo[1,2-a]pyridine] | < 100 | < 100 | 100 to 1000 |
| Cc1cc(-c2[nH]c3ccc(C4CCN(C(=O)CN(C)C(C)C)CC4)cc3c2C(C)C)cn2nnnc12 [Example 480, 2-(isopropyl(methyl)amino)-1-(4-(3-isopropyl-2-(8-methyltetrazolo[1,5-a]pyridin-6-yl)-1H-indol-5-yl)piperidin-1-yl)ethan-1-one] | < 100 | < 100 | 1000 to 50000 |
| CCOc1cc(-c2[nH]c3ccc(C4CCN(C(=O)CN(C)C)CC4)cc3c2C(C)C)cc2ncnn12 [Example 498, 2-(dimethylamino)-1-(4-(2-(5-ethoxy-[1,2,4]triazolo[1,5-a]pyridin-7-yl)-3-isopropyl-1H-indol-5-yl)piperidin-1-yl)ethan-1-one] | < 100 | < 100 | 100 to 1000 |
| CNC(=O)CN1CCC(c2ccc3[nH]c(-c4cc(C)n5ncnc5c4)c(C(C)C)c3c2)CC1 [Example 325, 2-(4-(3-isopropyl-2-(5-methyl-[1,2,4]triazolo [1,5-a]pyridin-7-yl)-1H-indol-5-yl)piperidin-1-yl)-N-methylacetamide] | < 100 | < 100 | 1000 to 50000 |
